Results as given in patent US8414958B2, “Implant and method for the manufacture thereof” (Thommen Medical AG, priority 2008, dated 2013).

Key:
tibias of rats = settings: titanium implants in tibias, daily into the abdominal cavity; cited from earlier work
bones of rats = settings: calcium sulfate carrier disks, eight weeks, compared to control group; cited from earlier work
parietal bone of rabbits = settings: parietal bone fractures, collagen sponges; cited from earlier work
jawbones of rats = settings: jawbone fractures, gelatin sponges; cited from earlier work
[1] = Solubility in ethanol and ethanol/water mixtures; type: physicochemical

| ethanol content of the ethanol/water mixture in which the substance dissolves [1] [% ethanol] | solubility in water | Structure (SMILES) | bone density around the implant (tibias of rats) | bone density (bones of rats) | bone mineral density (bones of rats) | mineral content of the bones (bones of rats) | formation of new bone (parietal bone of rabbits) | bone density above that of the control group receiving no active ingredient (jawbones of rats) | formation of new bone in histological studies (jawbones of rats) |
| --- | --- | --- | --- | --- | --- | --- | --- | --- | --- |
| – | – | CCC(C)(C)C(=O)O[C@H]1C[C@@H](C)C=C2C=CC(C)[C@H](CC[C@@H]3C[C@@H](O)CC(=O)O3)[C@H]21 (stereo in doubt) [simvastatin, [(1S,3R,7R,8S,8aR)-8-[2-[(2R,4R)-4-hydroxy-6-oxo-oxan-2-yl]ethyl]-3,7-dimethyl-1,2,3,7,8,8a-hexahydronaphthalen-1-yl] 2,2-dimethylbutanoate] | significant increase | significant increase | significant increase | significant increase | accelerated formation of new bone | 190-240% | enhanced formation of new bone was detectable |
| 25 | water-soluble | CCC(C)(C)C(=O)O[C@H]1C[C@@H](C)C=C2C=C[C@H](C)[C@H](CC[C@@H](O)C[C@@H](O)CC(=O)O)[C@H]21 [open-chain acid form of simvastatin] | – | – | – | – | – | – | – |
